In US4902710A, “Serotonin and norepinephrine uptake inhibitors” (Eli Lilly and Company, priority 1988, dated 1990):
Where a name gives a salt, the structure may show the parent alone.

Tests used:
[1] = test system: norepinephrine (NE) uptake, cortical synaptosomes; test: Synaptosomal uptake of 14C-l-norepinephrine (14C-NE) in rat cerebral cortex synaptosomes; assay type: biochemical, Male Sprague-Dawley rats; details: for IC50: inhibition of norepinephrine uptake in vitro, concentration needed to inhibit 50%; for percent inhibition NE (numbers in parentheses): at 1000 nM, compounds which failed to achieve 50% inhibition by that concentration
Protocol: (§1) This general procedure is set forth by Wong et al., in Drug Development Research 6:397-403 (1985).
(§2) Male Sprague-Dawley rats (110-150 g) from Harlan Industries (Cumberland, Id.) were fed a Purina Chow ad libitum for at least 3 days before being used in the studies. Rats were killed by decapitation. Whole brains were removed and dissected. Cerebral cortex was homogenized in 9 volumes of a medium containing 0.32M sucrose and 10 mM glucose. Crude synaptosomal preparations were isolated after differential centrifugation at 1,000 g for 10 min. and 17,000 g for 28 min. The final pellets were suspended in the same medium and kept in ice until use within the same day.
(§3) Synaptosomal uptake of ^3 H-serotonin(^3 H-5-hydroxytryptamine, ^3 H-5HT) and ^14 C-l-norepinephrine (^14 C-NE) was determined as follows. Cortical synaptosomes (equivalent to 1 mg of protein) were incubated at 37° C. for 5 min in 1 ml of Krebs-bicarbonate medium containing also 10 mM glucose, 0.1 mM iproniazid, 1 mM ascorbic acid, 0.17 mM EDTA, […] and 100 nM^14 C-NE. The reaction mixture was immediately diluted with 2 ml of ice-chilled Krebs-bicarbonate buffer and filtered under vacuum with a cell harvester (Brandel, Gaithersburg, Md.). Filters were rinsed twice with approximately 5 ml of ice-chilled 0.9% saline and were transferred to a counting vial containing 10 ml of scintillation fluid (PCS, Amersham, Arlington Heights, Ill.). Radioactivity was measured by a liquid scintillation spectrophotometer. Accumulation of ^3 H-5HT and ^14 C-NE at 4° C. represented the background and was subtracted from all samples.

[2] = test system: serotonin (5HT) uptake, cortical synaptosomes; test: Synaptosomal uptake of 3H-serotonin (3H-5HT) in rat cerebral cortex synaptosomes; assay type: biochemical, Male Sprague-Dawley rats; details: for IC50: inhibition of 5HT uptake in vitro, concentration needed to inhibit 50%; for percent inhibition 5HT (numbers in parentheses): at 1000 nM, compounds which failed to achieve 50% inhibition by that concentration
Protocol: as §1, §2, §3

norepinephrine uptake = details: hydrochloride; cited from earlier work
[3] = test system: serotonin (5-hydroxytryptamine) uptake; details: hydrochloride salt; cited from earlier work

Row | Structure (SMILES) | IC50 [1] | IC50 [2] | percent inhibition NE (numbers in parentheses) [1] | other results
1 | CNCCC(Sc1ccccc1C)c1ccccc1 (stereo not shown) [Example 2, hydrochloride] | 0.08 µM | 0.165 µM |  | 
2 | CNCCC(Oc1ccccc1C)c1ccccc1.Cl (single isomer, unassigned; (-)) [tomoxetine hydrochloride, (-)-N-methyl-γ-(2-methylphenoxy)benzenepropanamine hydrochloride] |  |  |  | selective norepinephrine uptake inhibition (in words) (norepinephrine uptake): selective inhibitor of norepinephrine uptake
3 | CNCCC(Sc1ccc(C)s1)c1ccccc1 (stereo not shown) [Example 7, N-Methyl-3-[(5-methyl-2-thienyl)thio]benzenepropanamine hydrochloride] | 0.3 µM | 1 µM |  | 
4 | CNCCC(c1ccccc1)[S+]([O-])c1ccc(C(F)(F)F)cc1 (stereo not shown) [Example 4, hydrochloride] |  |  | 6% | percent inhibition 5HT (numbers in parentheses) [2]: 23%
5 | CNCCC(Oc1ccc(C(F)(F)F)cc1)c1ccccc1 (racemic) [fluoxetine, dl-N-methyl-γ-[4-(trifluoromethyl)phenoxy]benzenepropanamine] |  |  |  | selective serotonin uptake inhibition (in words) [3]: selective serotonin (5-hydroxytryptamine) uptake inhibitor
6 | CNCCC(Sc1ccccc1OC)c1ccccc1 (stereo not shown) [Example 1, N-Methyl-3-[(2-methoxyphenyl)thio]benzenepropanamine hydrochloride] | 0.042 µM | 0.27 µM |  | 
7 | CNCCC(Sc1cccs1)c1ccccc1 (stereo not shown) [Example 6, N-Methyl-3-(2-thienylthio)benzenepropanamine hydrochloride] | 0.048 µM | 1 µM |  | 
8 | CNCCC(Sc1ccc(C(F)(F)F)cc1)c1ccccc1 (stereo not shown) [Example 3, N-Methyl-3-[[4-(trifluoromethyl)phenyl]thio]benzenepropanamine hydrochloride] |  | 0.11 µM | 11% | 
9 | CNCCC(c1ccccc1)S(=O)(=O)c1ccc(C(F)(F)F)cc1 (stereo not shown) [Example 5, N-Methyl-3-[[4-(trifluoromethyl)phenyl]sulfonyl]benzenepropanamine hydrochloride] |  |  | 1% | percent inhibition 5HT (numbers in parentheses) [2]: 5%
